This note sets out measurements from patent US4510307A, “6-Quinazolinesulfonyl derivatives and process for preparation thereof” (Asahi Kasei Kogyo Kabushiki Kaisha, priority 1980, dated 1985).

One data set relates to mesenteric artery. In words: Relaxation of Mesenteric Artery (isolated rabbit mesenteric artery contracted with KCl). The following applies: Oryctolagus cuniculus, concentration for 50% relaxation, KCl 15~20 mM contraction, read-out: Relaxation of Mesenteric Artery ED50. Here is the method: When, for example, 1-[4-(N-methyl-N-cyclohexylamino)-6-quinazolinesulfonyl]-4-(2-ethoxy-2-phenylethyl)piperazine was added and a complete relaxation was designated 100%, the concentration which could bring about a relaxation of 50%, i.e., ED50 was 0.8 μM.
After a home bred rabbit of a Japanese species weighing about 3 Kg was subjected to bloodletting, resulting in death and then to abdominal incision, the mesenteric artery was taken out, cut into helicoids of 2 mm×25 mm and suspended in a 20 ml organ bath filled with a Krebs-Henseleit solution into which a mixed gas of 95% by volume of O2 and 5% by volume of CO2 was introduced and one end of the artery was connected with an isometric transducer. When a load of 1.5 g was applied to the artery, the contraction and the relaxation of the artery was recorded as a weight on the transducer (a product of Nippon Koden K.K., Japan, "FD Pickup TB-912T"). The relaxation of the mesenteric artery was observed by adding the 6-quinazolinesulfonyl derivatives and their pharmaceutically acceptable acid addition salts to the mesenteric artery at the condition of about one half of the maxinum contraction with KCl at a KCl concentrantion of 15~20 mM. When the complete relaxation of the mesenteric artery was designated 100%, the concentration of the 6-quinazolinesulfonyl derivatives and their pharmaceutically acceptable acid addition salts which brought about a relaxation of 50% is shown in Table 6.

Data set [1] deals with human blood platelet cAMP PDE. Kind of data set: PDE inhibition, c-AMP-decomposing PDE of human blood platelet. Format: biochemical. The following applies: human blood platelet cAMP PDE specimen; read-out: PDE Inhibition I50, Human Blood Platelet (PII). An excerpt: (§1) More specifically, from the results of the experiment using an enzyme specimen in accordance with the reports [Mol. Pharmacol., 15, 49 (1979) and Biochem. Biophys. […] The 6-quinazolinesulfonyl derivatives and the pharmaceutically acceptable acid addition salts have inhibited the decomposition due to the enzyme specimens of substrate c-AMP and guanosine-3',5'-monophosphate (abbreviated "c-GMP"). This means that the compounds of this invention can inhibit the decomposition of the c-AMP and maintain the c-AMP in tissue at a high concentration. In other words, the compounds of this invention are effective for the improvement and medical treatment of a disease accompanied by reduction in the c-AMP and a disease accompanied by infiltration of calcium into tissue, for example, the contraction and convulsion of vascular smooth muscle.
(§2) As the enzyme specimens, human blood platelet and hog cerebral cortex were partially purified in accordance with reports [Mol. Pharmacol., 15, 49 (1979) and Biochem. Biophys. Res. Comun., 84, 277 (1978)]. The effect of the 6-quinazolinesulfonyl derivatives and their pharmaceutically acceptable acid addition salts of this invention on the c-AMP-decomposing PDE and the calmodulin or calcium-dependent cyclic nucleotide PDE was examined under the conditions in accordance with the above described reports. […] The activity of the compounds of this invention is expressed by the concentration which is required to inhibit 50% of the decomposition of the c-AMP-decomposing PDE, i.e., I50 by μM.
*^1 The human blood platelet cAMP PDE specimen was employed.

The subject of data set [2] is hog cerebral cortex calmodulin or calcium-dependent cyclic nucleotide PDE. In words: PDE inhibition, calmodulin or calcium-dependent cyclic nucleotide PDE of hog cerebral cortex. Format: biochemical.
Source text: as §1, §2
*^2 The enzyme activity was measured by using calmodulin and Ca^+
dependent specimens. The nonactivation was measured in the presence of
0.2 mM of EGTA, while the activation was measured in the presence of 0.2
mM of CaCl2 and 8 units of calmodulin.

The next data set concerns femoral artery. In words: Effect on blood flow volume of femoral artery of dog. The class given is in vivo, dog of mixed breed. The following applies: Canis lupus familiaris; 1 mg/Kg intravenous; anesthetized dog; read-out: Increased Blood Flow Volume in Femoral Artery. Here is the method:
(§3) The effect of the 6-quinazolinesulfonyl derivatives and the pharmaceutically acceptable acid addition salts of this invention on the vasodilation of the femoral and vertebral arteries can be measured by anesthetizing a dog of mixed breed weighing 8 to 15 Kg by an intravenous administration of 35 mg/Kg of pentbarbital, providing an acute type probe (a product of Nippon Koden K.K., Japan) with the femoral and vertebral arteries, administering the 6-quinazolinesulfonyl derivatives and the pharmaceutically acceptable acid addition salts to the femoral vein through a polyethylene tube inserted into the femoral vein side chain and measuring the blood flow volume with an electromagnetic flowmeter (a product of Nippon Koden K.K., Japan, "MF-27"). For example, when 1 mg/Kg of 1-[4-(N-methyl-N-cyclohexylamino)-6-quinazolinesulfonyl]-4-(2-ethoxy-2- phenylethyl)piperazine was intravenously administered, the increased blood flow volume in the femoral artery was 33% and the increased blood flow volume in the vertebral artery was 59%.
(§4) The effect on the vasodilatation of the femoral and vertebral arteries was measured by anesthetizing a dog of mixed breed weighing 8 to 15 Kg by an intravenous administration of 35 mg/Kg of pentbarbital, providing an acute type probe (a product of Nippon Koden K.K., Japan) with the femoral and vertebral arteries, administering the 6-quinazolinesulfonyl derivatives and their pharmaceutically acceptable acid addition salts to the femoral vein through a polyethylene tube inserted into the femoral vein side chain and measuring the blood flow volume with an electromagnetic blood flowmeter (a product of Nippon Koden K.K., Japan, "MF-27").

For the next data set, the system named is vertebral artery. Kind of data set: Effect on blood flow volume of vertebral artery of dog. The class given is in vivo, dog of mixed breed. The following applies: Canis lupus familiaris; 1 mg/Kg intravenous; anesthetized dog; read-out: Increased Blood Flow Volume in Vertebral Artery. Here is the method:
as §3, §4

A short description of data set [3]: Acute toxicity, intravenous administration in mice. The note with it: mouse, in vivo, male ddY-strain mice. Here is the method: Furthermore, when the 6-quinazolinesulfonyl derivatives and the pharmaceutically acceptable acid addition salts of this invention are intravenously and arterially administered for the above described purposes, any remarkable toxicity cannot be observed.
The acute toxicity of the 6-quinazolinesulfonyl derivatives and their pharmaceutically acceptable acid addition salts was measured by giving male ddY-strain mice an intravenous administration.

Setting [4] is: activated: 0.2 mM CaCl2 and 8 units of calmodulin, read-out: PDE Inhibition I50, Hog Cerebral Cortex (PII), Activated.
Setting [5] is: non-activated: presence of 0.2 mM EGTA.
The mark [6] stands for this setting: non-activated: presence of 0.2 mM EGTA, read-out: PDE Inhibition I50, Hog Cerebral Cortex (PII), Non-activated.

pEC50, pIC50: −log10 of the molar value. Like-named read-outs stand apart in the source and are kept apart here.

Turning to `CCCCN(CCCC)c1ncnc2ccc(S(=O)(=O)N3CCN(CC(OCC)c4ccccc4)CC3)cc12` (stereo not drawn) [Compound (4), 1-(4-dibutylamino-6-quinazolinesulfonyl)-4-(2-ethoxy-2-phenylethyl)-piperazine], the pEC50 in the data set on mesenteric artery is 5.89. Besides, the pIC50 in data set [1] was 3.02; in data set [2] (setting [4]) it was 3.43. The “PDE Inhibition I50, Hog Cerebral Cortex (PII), Non-activated” value in data set [2] (setting [5]) is listed as “not inhibited”. The change in vivo at 1 mg/kg with femoral artery came out at 33%; in the data set with vertebral artery, 50%. The compound also gave an LD50 in data set [3] of 135 mg/kg.

As to `CCOC(CN1CCN(S(=O)(=O)c2ccc3ncnc(N4CCCCC4)c3c2)CC1)c1ccccc1` (stereo not drawn) [Compound (6), 1-(4-piperidino-6-quinazolinesulfonyl)-4-(2-ethoxy-2-phenylethyl)-piperazine], the pEC50 in the data set on mesenteric artery is 5.77. In addition, the pIC50 was 3.07 in data set [1], 4.51 in data set [2] (setting [4]) and 4.82 in data set [2] (setting [6]). Further, the change in vivo at 1 mg/kg with femoral artery is 31%; with vertebral artery, 51%. The compound also yielded an LD50 in data set [3] of 108 mg/kg.

For the compound `O=S(=O)(c1ccc2ncnc(N3CCCCC3)c2c1)N1CCN(CC=Cc2ccccc2)CC1` [Compound (9), 1-(4-piperidino-6-quinazolinesulfonyl)-4-cinnamylpiperazine], the pEC50 in the data set on mesenteric artery was 5.52. Moreover, the pIC50 in data set [1] is 3.15; in data set [2] (setting [4]) it was 4.70. For the same compound, in data set [2] (setting [5]), the “PDE Inhibition I50, Hog Cerebral Cortex (PII), Non-activated” value was “not inhibited”. Besides, the change in vivo at 1 mg/kg was determined as 24% with femoral artery and 42% in the data set on vertebral artery. The LD50 in data set [3] came out at 133 mg/kg.

For `CCOC(CN1CCN(S(=O)(=O)c2ccc3ncnc(N(C)C4CCCCC4)c3c2)CC1)c1ccccc1` (stereo not drawn) [Compound (19), 1-[4-(N-methyl-N-cyclohexylamino)-6-quinazolinesulfonyl]-4-(2-ethoxy-2-phenylethyl)piperazine], in the data set with mesenteric artery, the pEC50 was 6.10. Moreover, the pIC50 in data set [1] is 3.12; in data set [2] (setting [4]), 5.40; in data set [2] (setting [6]), 5.40. Moreover, the change in vivo at 1 mg/kg in the data set on femoral artery is 33%; with vertebral artery, 59%. In data set [3], this compound showed an LD50 of 63 mg/kg.

Regarding `CCOC(CN1CCN(S(=O)(=O)c2ccc3ncnc(N(C)c4ccccc4)c3c2)CC1)c1ccccc1` (stereo not drawn) [Compound (23), 1-[4-(N-methylanilino)-6-quinazolinesulfonyl]-4-(2-ethoxy-2-phenylethyl)-piperazine], the pEC50 with mesenteric artery was 5.66. In addition, the figures for the pIC50 in data set [1], in data set [2] (setting [4]) and in data set [2] (setting [6]) were 3.05, 4.96 and 4.62, respectively. Further, the change in vivo at 1 mg/kg with femoral artery stood at 25%; in the data set on vertebral artery, 38%. For the same compound, the LD50 in data set [3] amounted to 98 mg/kg.

On to `CCOC(CN1CCN(S(=O)(=O)c2ccc3ncnc(N(C)Cc4ccccc4)c3c2)CC1)c1ccccc1` (stereo not drawn) [Compound (25), 1-[4-(N-methyl-N-benzylamino)-6-quinazolinesulfonyl]-4-(2-ethoxy-2-phenylethyl)piperazine], for which the pEC50 in the data set with mesenteric artery was 6.10. Besides, the pIC50 in data set [1] is 3.07; in data set [2] (setting [4]), 5.15; in data set [2] (setting [6]), 5.15. For the same compound, the change in vivo at 1 mg/kg in the data set on femoral artery amounted to 36%; in the data set on vertebral artery it was 48%. Further, the LD50 in data set [3] was 72 mg/kg.

For `NCCCCNS(=O)(=O)c1ccc2ncnc(N3CCCCC3)c2c1` [Compound (31), N-(4-aminobutyl)-4-piperidino-6-quinazolinesulfonamide], the pEC50 in the data set on mesenteric artery is 4.68. The pIC50 in data set [1] was 3.52; in data set [2] (setting [4]), 4.12; in data set [2] (setting [6]), 4.06. The change in vivo at 1 mg/kg in the data set on femoral artery is 28%; in the data set on vertebral artery, 48%. Besides, the LD50 in data set [3] stood at 45 mg/kg.

As to `NCCCCCCNS(=O)(=O)c1ccc2ncnc(N3CCCCC3)c2c1` [Compound (32), N-(6-aminohexyl)-4-piperidino-6-quinazolinesulfonamide], in the data set with mesenteric artery, the pEC50 is 4.62. The pIC50 is 3.28 in data set [1], 3.95 in data set [2] (setting [4]) and 4.03 in data set [2] (setting [6]). In addition, the change in vivo at 1 mg/kg with femoral artery was 21%; in the data set on vertebral artery, 36%. This compound also yielded an LD50 in data set [3] of 95 mg/kg.

Regarding `CCCCN(CCCC)c1ncnc2ccc(S(=O)(=O)NCCCCN)cc12` [Compound (37), N-(4-aminobutyl)-4-dibutylamino-6-quinazolinesulfonamide], in the data set on mesenteric artery, the pEC50 was 5.10. For the same compound, the pIC50 in data set [1] was 3.60; in data set [2] (setting [4]) it was 4.36; in data set [2] (setting [6]) it was 3.96. Further, the values for the change in vivo at 1 mg/kg in the data set on femoral artery and in the data set on vertebral artery were 24% and 41%, respectively. This compound registered a median lethal dose (LD50) in data set [3] of 103 mg/kg.

The term LD50 denotes the dose at which mortality reaches 50%. A high value points to a less toxic substance.
